Like-named read-outs stand apart in the source and are kept apart here.
Legend:
Male Wistar albino rats = assay: Formalin footpad test (FT); format: in vivo, rat; settings: PO, statistically significant decrease in late-phase pain behaviour versus vehicle
Method: a. The Formalin Footpad Test (FT):
The FT model was used to test invention compounds for pain alleviating properties. The model produces a biphasic response in a test animal that results from a change in pain intensity over time. The FT model utilizes an injection of dilute formalin into the hindpaw of a rodent, which produces high intensity acute pain behaviors which are measured for the first 10 minutes post formalin injection (early phase responding). High intensity acute pain behaviors include rapid licking or biting of the injected hindpaw. The second phase is a prolonged period of lower intensity pain behaviors (late phase responding) which are measured from 11 to 45 minutes post-formalin injection.
Male Wistar albino rats (Harlan Sprague-Dawley Labs), weighing approximately 100 g at the time of testing, were used. Animals were group-housed and acclimated to the housing facility for 1 week prior to testing. Animals were maintained on a 12-hour/12-hour light/dark cycle and fed block rodent chow. From 4 to 8 animals were randomly assigned to either a vehicle-only dose group or a vehicle-plus invention compound treatment group on the day of testing.
The testing apparatus was a 16″×8″ box divided into two 8″×8″ testing chambers. Each testing chamber comprised a floor and 3 walls made of clear plastic mirrors, and a fourth wall which was clear plastic that allowed observation of animal behavior. The top of each chamber was covered with a metal screen during testing to prevent animals from climbing out of the chamber. Two animals were tested simultaneously in the adjoining boxes, but animals were unable to observe one another.
Animals were weighed and placed into holding cages (2 animals per cage) in the testing room prior to dosing. Following approximately 30 minutes of acclimation to the testing room, each pair of animals was administered orally (PO) by gavage a mixture of invention compound plus vehicle or vehicle alone. The treated animals were then placed in individual test chambers and allowed to acclimate to the chambers for at least 20 minutes. Then 50 μL of a 2.5% solution of formalin in vehicle was injected subcutaneously (SC) in the plantar surface of the left hindpaw from 30 to 120 minutes after administration of the invention compound. A session timer was started following the formalin injection, and the amount of time the animal spent licking or biting the injected paw was clocked with a hand-held stopwatch. The cumulative time spent engaging in a pain response was manually recorded at 5-minute intervals for 45 minutes post formalin injection. Early phase responding included Minutes 0 to 10, and late phase responding included Minutes 11 to 45. At the end of the testing period, animals were sacrificed using carbon dioxide. […]

[1] = target: T1, NR1A/NR2B NMDA receptor subtype (Rattus norvegicus, UniProt P35439+Q00960); assay: [3H]Ifenprodil binding assay (IFPNR), rat forebrain membranes
T1 construct: buffy coat membrane fraction was prepared from frozen adult rat forebrains; tissue Zivic-Miller Laboratories, Inc; host or cells: adult rat forebrain membranes
T1 sequence (Q00960 27-1482, other chains not shown): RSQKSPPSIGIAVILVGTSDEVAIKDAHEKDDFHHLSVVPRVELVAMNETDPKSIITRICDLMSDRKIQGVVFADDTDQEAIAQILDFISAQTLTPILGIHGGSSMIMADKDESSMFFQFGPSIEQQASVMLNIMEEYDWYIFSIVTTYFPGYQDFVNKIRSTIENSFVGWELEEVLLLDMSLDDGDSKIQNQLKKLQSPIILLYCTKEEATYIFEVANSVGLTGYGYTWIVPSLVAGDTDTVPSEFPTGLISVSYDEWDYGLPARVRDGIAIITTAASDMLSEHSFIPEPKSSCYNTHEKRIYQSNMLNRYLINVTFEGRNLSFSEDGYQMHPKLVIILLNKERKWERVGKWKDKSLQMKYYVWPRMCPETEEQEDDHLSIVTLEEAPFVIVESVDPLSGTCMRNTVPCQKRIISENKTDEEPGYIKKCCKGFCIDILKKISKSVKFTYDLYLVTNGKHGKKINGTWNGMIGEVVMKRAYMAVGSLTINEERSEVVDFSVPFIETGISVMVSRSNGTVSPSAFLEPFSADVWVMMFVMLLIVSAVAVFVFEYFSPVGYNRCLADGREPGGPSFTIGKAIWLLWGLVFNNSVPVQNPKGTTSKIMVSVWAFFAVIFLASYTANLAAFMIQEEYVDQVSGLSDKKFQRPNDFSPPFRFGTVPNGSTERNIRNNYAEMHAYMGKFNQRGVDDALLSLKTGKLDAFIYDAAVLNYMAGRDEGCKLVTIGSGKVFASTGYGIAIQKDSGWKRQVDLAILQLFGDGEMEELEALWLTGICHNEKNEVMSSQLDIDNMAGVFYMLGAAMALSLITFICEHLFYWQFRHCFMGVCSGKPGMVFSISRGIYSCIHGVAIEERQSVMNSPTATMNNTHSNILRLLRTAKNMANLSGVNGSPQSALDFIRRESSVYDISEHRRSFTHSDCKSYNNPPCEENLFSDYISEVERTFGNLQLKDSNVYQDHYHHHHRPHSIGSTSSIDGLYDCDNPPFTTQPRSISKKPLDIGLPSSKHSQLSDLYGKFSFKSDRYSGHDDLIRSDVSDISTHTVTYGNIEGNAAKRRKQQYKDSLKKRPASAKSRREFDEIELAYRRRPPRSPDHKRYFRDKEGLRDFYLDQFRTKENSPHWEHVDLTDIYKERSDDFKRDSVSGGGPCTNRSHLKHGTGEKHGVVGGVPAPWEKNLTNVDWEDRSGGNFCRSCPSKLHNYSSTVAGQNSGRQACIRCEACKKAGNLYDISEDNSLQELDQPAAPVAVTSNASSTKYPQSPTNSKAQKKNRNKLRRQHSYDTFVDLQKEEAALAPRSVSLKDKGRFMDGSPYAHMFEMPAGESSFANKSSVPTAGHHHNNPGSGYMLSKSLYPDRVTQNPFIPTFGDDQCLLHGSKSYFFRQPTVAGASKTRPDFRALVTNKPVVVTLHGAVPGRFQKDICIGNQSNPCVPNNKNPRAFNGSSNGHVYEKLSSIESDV
Method: b. [^3H]Ifenprodil Binding Assay (IFPNR) Protocol:
Ifenprodil, [phenyl-^3H]-(specific activity, 66.2 Ci/mmol) was purchased from Dupont NEN Research Products (Boston, Mass.). Ifenprodil tartrate was purchased from Research Biochemicals International (Natick, Mass.). HEPES, glutamate and glycine were purchased from Sigma Chemical Co. (St. Louis, Mo.).
All buffers and reagents used in assay incubations or to dissolve drugs were prepared using water purified through a Milli-Q reverse osmosis system (Millipore Corp., Bedford, Mass.) and treated with UV emissions. Prior to use in the assays buffers were further filtered through a sterile Coming filtration unit (Coming Glass Works, Coming, N.Y.) containing a 0.2 micron filter. Buffer used to rinse the membranes on the assay filters was prepared with purified water, but was not refiltered and was stored no longer than 5 days. Stock solutions of the drugs (usually 10 mM) were dissolved in 20 mM HEPES-KOH buffer pH 7.4 (assay buffer) with the addition of 1 to 5 μL of glacial AcOH, if needed to keep them in solution. Eliprodil was used as the reference NMDA antagonist. A stock solution of eliprodil was prepared, and was buffered with the addition of 10% DMSO. All subsequent dilutions from the stock solution were made in buffer.
An extensively washed buffy coat membrane fraction was prepared from frozen adult rat forebrains (Zivic-Miller Laboratories, Inc., Zelienople, Pa.) as described by Coughenour L. L.; Cordon, J. J., J. Pharmacol. Exp. Ther., 1997;280:584-592, and stored at −80° C. On the day of the assay, pellets of the frozen membrane fractions were resuspended in 35 mL of assay buffer at pH 7.4 using a POLYTRON (Kinematica A. G. Company, Littau, Switzerland) mixer at setting 6. After incubation at 37° C. for 30 minutes in a shaking water bath, the homogenate was centrifuged 40,000×g for 10 minutes at 4° C. The pellets were resuspended in fresh buffer and centrifuged 3 more times before final suspension for use in the assay.
(iii) [^3H]Ifenprodil Binding protocol:
Triplicate incubations were carried out in a volume of 0.5 mL in 1.3 mL polypropylene tubes (Marsh Biomedical Products Inc, Rochester, N.Y.) for 2 hours at room temperature. Incubations contained invention compounds, membranes (100-200 μg protein) and 4 nM [^3H]-ifenprodil in 20 mM HEPES-KOH buffer, pH 7.4 (assay buffer). Assays were started by addition of the membranes. Bound radioligand was separated by filtration under reduced pressure using a TOMTEC Mach II, 96-well cell harvester (Tomtec Inc, Orange, Conn.). Filtration was through Whatman GF/B glass fiber filters (Whatman Ltd., Maidstone, England), which had been soaked for at least 15 minutes in 0.3% polyethylenimine and allowed to air dry. The filters were rinsed with 3 mL of ice cold assay buffer within 6 seconds. Air was allowed to pass through the filters for an additional 10 seconds to remove residual moisture. The filter mat was supported on a cold (−20° C.) TEFLON (E. I. Du Pont de Nemours and Company, Wilmington, Del.) coated support, and filters from individual wells were separated and placed in Mini Poly-Q vials (Becklman Instruments Inc, Fullerton, Calif.) and filled with 4 mL of scintillation cocktail (Beckman Ready Protein^+). Radioactivity retained on the filter was determined by liquid scintillation spectrophotometry. Nonspecific binding was defined as the binding in the presence of […] ifenprodil. Ninety percent of the total binding of ifenprodil was specific binding at the NR1A/NR2B NMDA receptor subtype active site (as opposed to binding at a remote site).
Binding curves were statistically analyzed for a best 1- or 2-site competition fit using GRAPHPAD PRISM software (GraphPad Software Inc, San Diego, Calif.), a computer program used to analyze and graph scientific data. The normalized data was fitted by nonweighted nonlinear regression to either [formula]
Control data was entered as 100%, and no parameters were constrained. […]

[2] = Table 2, 4 nM [3H]-ifenprodil, read-out: IFPNR IC50 μm
[3] = Table 3, 4 nM [3H]-ifenprodil, read-out: IFPNR IC50
[4] = Table 4, 4 nM [3H]-ifenprodil, read-out: IFPNR IC50

**Q.** With O=c1[nH]c2ccc(C3=NOC(CN4CCC(Cc5ccc(F)cc5)CC4)C3)cc2o1 (single isomer, unassigned; (+)) [Example 4a, (+)-6-{5-[4-(4-fluorobenzyl)piperidin-1-ylmethyl]-4,5-dihydroisoxazol-3-yl}-3H-benzoxazol-2-one] as the compound, how does the “FT (mg/kg), active dose” value (Male Wistar albino rats; Table 1) read?
**A.** <10 mg/kg

**Q.** And the IC50 ([1]; Table 1, 4 nM [3H]-ifenprodil, read-out: IFPNR (IC50 μM))?
**A.** 0.016 µM

**Q.** With O=c1[nH]c2ccc(C3CC(CN4CCC(Cc5ccc(F)cc5)CC4)=NO3)cc2o1 (stereo not shown) [Example 5, 6-{3-[4-(4-Fluorobenzyl)piperidin-1-ylmethyl]-4,5-dihydroisoxazol-5-yl}-3H-benzoxazol-2-one] as the compound, how does the “FT (mg/kg), active dose” value (Male Wistar albino rats; Table 2) read?
**A.** >30 mg/kg

**Q.** What about the IC50 [1, 2] of the same compound?
**A.** 0.047 µM

**Q.** For O=c1[nH]c2ccc(-c3cc(CN4CCC(Cc5ccc(F)cc5)CC4)on3)cc2o1 [Example 15, 6-{5-[4-(4-Fluorobenzyl)piperidin-1-ylmethyl]isoxazol-3-yl}-3H-benzoxazol-2-one], which IC50 [1, 2] is on record?
**A.** 0.499 µM

**Q.** What about the melting point of the same compound?
**A.** 237 to 244 °C

**Q.** For O=C(C1CC(c2ccc3[nH]c(=O)oc3c2)=NO1)N1CCC(Cc2ccc(F)cc2)CC1 (stereo not shown) [Example 18, 6-{5-[4-(4-Fluorobenzyl)piperidine-1-carbonyl]-4,5-dihydroisoxazol-3-yl}-3H-benzoxazol-2-one], which IC50 [1, 3] is on record?
**A.** > 1 µM

**Q.** And the melting point?
**A.** 210 to 213 °C

**Q.** Which results are given for CC1(CN2CCC(Cc3ccc(F)cc3)CC2)CC(c2ccc3[nH]c(=O)oc3c2)=NO1 (stereo not shown) [Example 21, 6-{5-[4-(4-Fluorobenzyl)piperidin-1-ylmethyl]-5-methyl-4,5-dihydroisoxazol-3-yl}-3H-benzoxazol-2-one]?
**A.** IC50 [1, 2]: 0.011 µM; melting point: 82 to 86 °C

**Q.** For O=C(O)C1(CN2CCC(Cc3ccc(F)cc3)CC2)CC(c2ccc3[nH]c(=O)oc3c2)=NO1 (stereo not shown) [Example 22, 5-[4-(4-Fluorobenzyl)piperidin-1-ylmethyl]-3-(2-oxo-2,3-dihydrobenzoxazol-6-yl)-4,5-dihydroisoxazole-5-carboxylic acid], which IC50 [1, 2] is on record?
**A.** 0.788 µM

**Q.** And the melting point?
**A.** 188 to 194 °C

**Q.** Which IC50 [1, 4] does the source give for O=c1[nH]c2ccc(C3=NOC(CN4CCC(Oc5ccc(F)cc5)CC4)C3)cc2o1 (stereo not shown) [Example 27, 6-{5-[4-(4-Fluorophenoxy)piperidin-1-ylmethyl]-4,5-dihydroisoxazol-3-yl}-3-H-benzoxazol-2-one] here?
**A.** 0.059 µM

**Q.** And the melting point?
**A.** 192 to 194 °C

**Q.** For O=c1[nH]c2ccc(C3=NOC(CN4CCC(Sc5ccc(F)cc5)CC4)C3)cc2o1 (stereo not shown) [Example 28, 6-{5-[4-(4-Fluorophenylsulfanyl)piperidin-1-ylmethyl]-4,5-dihydroisoxazol-3-yl}-3H-benzoxazol-2-one], which IC50 [1, 4] is on record?
**A.** 0.018 µM

**Q.** What about the melting point of the same compound?
**A.** 190 to 192 °C

**Q.** What does the source list for O=C(c1ccc(F)cc1)C1CCN(CC2CC(c3ccc4[nH]c(=O)oc4c3)=NO2)CC1 (stereo not shown) [Example 30, 6-{5-[4-(4-Fluorobenzoyl)piperidin-1-ylmethyl]-4,5-dihydroisoxazol-3-yl}-3H-benzoxazol-2-one]?
**A.** IC50 [1, 4]: 0.759 µM; melting point: 188 to 190 °C

**Q.** With CC(O)(c1ccc(F)cc1)C1CCN(CC2CC(c3ccc4[nH]c(=O)oc4c3)=NO2)CC1 (stereo not shown) [Example 32, 6-(5-{4-[1-(4-Fluorophenyl)-1-hydroxyethyl]piperidin-1-ylmethyl}-4,5-dihydroisoxazol-3-yl)-3H-benzoxazol-2-one] as the compound, how does the IC50 [1, 4] read?
**A.** > 1 µM

**Q.** And the melting point?
**A.** 125 to 134 °C

**Q.** Which IC50 ([1]; Table 5, 4 nM [3H]-ifenprodil, read-out: IFPNR IC50) does the source give for Cc1c(C2=NOC(CN3CCC(Cc4ccc(F)cc4)CC3)C2)cc2oc(=O)[nH]c2c1Cl (stereo not shown) [Example 33, 4-Chloro-6-{5-[4-(4-fluorobenzyl)piperidin-1-ylmethyl]-4,5-dihydroisoxazol-3-yl}-5-methyl-3H-benzoxazol-2-one] here?
**A.** 0.014 µM

**Q.** What about the melting point of the same compound?
**A.** 131 to 132 °C

**Q.** Which IC50 [1, 3] does the source give for O=c1[nH]c2ccc(C3=NOC(CN4CCC(c5ccc(F)cc5)CC4)C3)cc2o1 (stereo not shown) [Example 34, -{5-[4-(4-Fluorophenyl)piperidin-1-ylmethyl]-4,5-dihydroisoxazol-3-yl}-3H-benzoxazol-2-one] here?
**A.** 0.28 µM

**Q.** And the melting point?
**A.** 214 to 217 °C

**Q.** With O=c1[nH]c2ccc(C3=NOC(CN4CCC(O)(c5ccccc5)CC4)C3)cc2o1 (stereo not shown) [Example 35] as the compound, how does the IC50 [1, 3] read?
**A.** > 1 µM

**Q.** And the melting point?
**A.** 115 to 118 °C

**Q.** What does the source list for O=c1[nH]c2ccc(C3=NOC(CCN4CCC(c5ccc(F)cc5)CC4)C3)cc2o1 (stereo not shown) [Example 36, 6-(5-{2-[4-(4-Fluorophenyl)piperidin-1-yl]ethyl}-4,5-dihydroisoxazol-3-yl)-3H-benzoxazol-2-one]?
**A.** IC50 [1, 3]: > 1 µM; melting point: 188 to 194 °C

Source: patent publication US6642256B2, “Piperidine derivatives as subtype selective N-Methyl-D-Aspartate antagonists” (Warner-Lambert Company LLC, priority 2000, dated 2003)
